The source of these data is PubChem BioAssay AID256 (DTP/NCI, 2004).

This experiment relates to CD2F1 mice, L1210 leukemia ip, survival T/C. Put plainly: NCI In Vivo Anticancer Drug Screen. Data for tumor model L1210 Leukemia (intraperitoneal) in CD2F1 (CDF1) mice. The following applies: endpoint: mean survival time, higher = longer survival. The essentials: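 Implant tumor; dose compound or vehicle; measure endpoint in both groups; report treated divided by control.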

Where [1] appears, read: dose: 12.5 mg/kg/injection, schedule: Q01DX009 (ip), vehicle: other.
Where [2] appears, read: dose: 25.0 mg/kg/injection, schedule: Q01DX009 (ip), vehicle: other.
The mark [3] stands for this setting: dose: 50.0 mg/kg/injection, schedule: Q01DX009 (ip), vehicle: other.
[4] abbreviates: dose: 100.0 mg/kg/injection, schedule: Q04DX002 (ip), vehicle: saline with Tween-80.
Setting [5] is: dose: 400.0 mg/kg/injection, schedule: Q01DX009 (ip), vehicle: saline with Tween-80.

Values joined by “and” are separate entries in the source; they are usually repeats but may differ in a detail not shown here. Equal values may be shown once. Inconclusive results and toxic doses are left out.

In the case of `CCOC/C(O)=C(\C#N)c1ccc(Cl)cc1`, the T/C runs as follows: under setting [1], 94 % of control and 104 % of control; (dose: 12.5 mg/kg/injection, schedule: Q04DX003 (ip), vehicle: other) 104 % of control; (dose: 25.0 mg/kg/injection, schedule: Q01DX001 (ip), vehicle: other) 93 % of control; under setting [2], 95 % of control and 100 % of control; (dose: 25.0 mg/kg/injection, schedule: Q04DX002 (ip), vehicle: other) 116 % of control and 111 % of control; (dose: 25.0 mg/kg/injection, schedule: Q04DX003 (ip), vehicle: other) 101 % of control. Besides, the T/C (dose: 50.0 mg/kg/injection, schedule: Q01DX001 (ip), vehicle: other) is 100 % of control; the T/C under setting [3] was 93 % of control and 95 % of control; the T/C (dose: 50.0 mg/kg/injection, schedule: Q04DX002 (ip), vehicle: other) was 94 % of control and 99 % of control; the T/C (dose: 50.0 mg/kg/injection, schedule: Q04DX003 (ip), vehicle: other) is 101 % of control.

For `CC(=O)OCC1OC([S-])C(OC(C)=O)C(OC(C)=O)C1OC(C)=O.CC[PH+](CC)CC.CC[PH+](CC)CC.[Au].[Au]` (configuration not stated), the T/C (dose: 0.62 mg/kg/injection, schedule: Q01DX009 (ip), vehicle: Klucel (hydroxypropylcellulose) (HPC)) was 100 % of control and 102 % of control; the T/C (dose: 1.25 mg/kg/injection, schedule: Q01DX009 (ip), vehicle: Klucel (hydroxypropylcellulose) (HPC)) is 100 % of control and 104 % of control; the T/C (dose: 2.5 mg/kg/injection, schedule: Q01DX009 (ip), vehicle: Klucel (hydroxypropylcellulose) (HPC)) is 96 % of control and 102 % of control; the T/C (dose: 5.0 mg/kg/injection, schedule: Q01DX009 (ip), vehicle: Klucel (hydroxypropylcellulose) (HPC)) was 97 % of control and 98 % of control; the T/C (dose: 10.0 mg/kg/injection, schedule: Q01DX009 (ip), vehicle: Klucel (hydroxypropylcellulose) (HPC)) was 94 % of control and 97 % of control.

For the molecule `O=Nc1ccc(O)cc1`, the T/C is, setting by setting: (dose: 50.0 mg/kg/injection, schedule: Q04DX003 (ip), vehicle: saline with Tween-80) 100 % of control; (dose: 100.0 mg/kg/injection, schedule: Q04DX003 (ip), vehicle: saline with Tween-80) 105 % of control and 107 % of control; (dose: 200.0 mg/kg/injection, schedule: Q04DX003 (ip), vehicle: saline with Tween-80) 95 % of control and 111 % of control.

Turning to `CC1C(=O)OC2C1CCC1(C)C3OC3C(=O)C3(C)OC231` (configuration not stated), under setting [4], the T/C was 96 % of control.

On to `NC(=O)Oc1cc(OC(N)=O)cc(N(CCCl)CCCl)c1`, for which the T/C is, setting by setting: under setting [1], 103 % of control; (dose: 25.0 mg/kg/injection, schedule: Q01DX001 (ip), vehicle: water) 98 % of control; under setting [2], 114 % of control; (dose: 50.0 mg/kg/injection, schedule: Q01DX001 (ip), vehicle: water) 108 % of control; under setting [3], 111 % of control; (dose: 100.0 mg/kg/injection, schedule: Q01DX001 (ip), vehicle: water) 108 % of control. Also, the T/C was 116 % of control (dose: 100.0 mg/kg/injection, schedule: Q01DX009 (ip), vehicle: other); 117 % of control (dose: 200.0 mg/kg/injection, schedule: Q01DX001 (ip), vehicle: water); 104 % of control (dose: 200.0 mg/kg/injection, schedule: Q01DX009 (ip), vehicle: other); 120 % of control (dose: 400.0 mg/kg/injection, schedule: Q01DX001 (ip), vehicle: water).

With `CC[n+]1ccc(Nc2ccc(NC(=O)c3ccc(C(=O)Nc4ccc(Nc5cc[n+](CC)c(N)n5)cc4)cc3)cc2)nc1N`, the T/C runs as follows: (dose: 12.5 mg/kg/injection, schedule: Q01DX009 (ip), vehicle: saline) 172 % of control; (dose: 25.0 mg/kg/injection, schedule: Q01DX009 (ip), vehicle: saline) 325 % of control; (dose: 40.0 mg/kg/injection, schedule: Q01DX009 (ip), vehicle: saline) 265 % of control; (dose: 50.0 mg/kg/injection, schedule: Q01DX009 (ip), vehicle: saline) 275 % of control; (dose: 59.0 mg/kg/injection, schedule: Q01DX009 (ip), vehicle: saline) 262 % of control; (dose: 89.0 mg/kg/injection, schedule: Q01DX009 (ip), vehicle: saline) 212 % of control. In addition, the T/C is 167 % of control (dose: 150.0 mg/kg/injection, schedule: Q01DX001 (ip), vehicle: Klucel (hydroxypropylcellulose) (HPC)); 118 % of control (dose: 200.0 mg/kg/injection, schedule: Q01DX009 (ip), vehicle: saline); 315 % of control (dose: 225.0 mg/kg/injection, schedule: Q01DX001 (ip), vehicle: Klucel (hydroxypropylcellulose) (HPC)).

As to `Cc1cccc(Cl)c1NC(=O)C(C)C`, the T/C reads like this: (dose: 100.0 mg/kg/injection, schedule: Q04DX003 (ip), vehicle: other) 94 % of control; (dose: 200.0 mg/kg/injection, schedule: Q04DX003 (ip), vehicle: other) 91 % of control; (dose: 400.0 mg/kg/injection, schedule: Q04DX003 (ip), vehicle: other) 87 % of control.

`O=c1[nH]c(=O)n(C2CCOC2)cc1Br` (configuration not stated): the T/C reads like this: (dose: 100.0 mg/kg/injection, schedule: Q01DX001 (ip), vehicle: saline) 103 % of control; (dose: 200.0 mg/kg/injection, schedule: Q01DX001 (ip), vehicle: saline) 100 % of control; (dose: 400.0 mg/kg/injection, schedule: Q01DX001 (ip), vehicle: saline) 103 % of control.

Turning to `CCOC(=O)C(NC(N)=O)C(=O)OCC`, the T/C reads like this: (dose: 25.0 mg/kg/injection, schedule: Q01DX009 (ip), vehicle: water) 91 % of control; (dose: 50.0 mg/kg/injection, schedule: Q01DX009 (ip), vehicle: water) 91 % of control; (dose: 100.0 mg/kg/injection, schedule: Q01DX009 (ip), vehicle: water) 93 % of control; (dose: 200.0 mg/kg/injection, schedule: Q01DX009 (ip), vehicle: water) 89 % of control; (dose: 400.0 mg/kg/injection, schedule: Q01DX009 (ip), vehicle: water) 93 % of control.

In the case of `O=C1/C(=C/C2CCC3CCCCC3[N-]2)N2CCC1CC2.[Cl][Co][Cl]` (configuration not stated), the T/C runs as follows: (dose: 9.4 mg/kg/injection, schedule: Q04DX003 (ip), vehicle: saline) 102 % of control; (dose: 18.8 mg/kg/injection, schedule: Q04DX003 (ip), vehicle: saline) 100 % of control; (dose: 37.5 mg/kg/injection, schedule: Q04DX003 (ip), vehicle: saline) 109 % of control.

Turning to `CCNc1nnc(N=Nc2ccccc2)s1`, the T/C was 91 % of control (dose: 25.0 mg/kg/injection, schedule: Q04DX002 (ip), vehicle: saline with Tween-80); 95 % of control (dose: 50.0 mg/kg/injection, schedule: Q04DX002 (ip), vehicle: saline with Tween-80); 95 % of control under setting [4]; 88 % of control (dose: 200.0 mg/kg/injection, schedule: Q04DX002 (ip), vehicle: saline with Tween-80).

As to `CN(C)N=Nc1cc(Cl)cc(C(N)=O)c1Cl`, the T/C is 123 % of control (dose: 88.0 mg/kg/injection, schedule: Q01DX009 (ip), vehicle: saline with Tween-80); 120 % of control (dose: 177.0 mg/kg/injection, schedule: Q01DX009 (ip), vehicle: saline with Tween-80); 96 % of control under setting [5].

On to `O=c1ccn(Cc2cccc([N+](=O)[O-])c2)c(=O)[nH]1`, for which the T/C is 106 % of control (dose: 100.0 mg/kg/injection, schedule: Q01DX009 (ip), vehicle: saline with Tween-80); 104 % of control (dose: 200.0 mg/kg/injection, schedule: Q01DX009 (ip), vehicle: saline with Tween-80); 102 % of control under setting [5].

In the case of `C=C(Br)CNC(=O)Nc1c2ccccc2nc2ccccc12`, the T/C is 97 % of control (dose: 25.0 mg/kg/injection, schedule: Q01DX009 (ip), vehicle: Klucel (hydroxypropylcellulose) (HPC)); 98 % of control (dose: 50.0 mg/kg/injection, schedule: Q01DX009 (ip), vehicle: Klucel (hydroxypropylcellulose) (HPC)); 97 % of control (dose: 100.0 mg/kg/injection, schedule: Q01DX009 (ip), vehicle: Klucel (hydroxypropylcellulose) (HPC)).

Regarding `CC(=O)[CH-]C(C)=O.O=[N+]([O-])O.[NH-]C1CCCCC1[NH-].[Pt+4]` (configuration not stated), the T/C (dose: 1.25 mg/kg/injection, schedule: Q04DX003 (ip), vehicle: water) is 95 % of control; the T/C (dose: 2.5 mg/kg/injection, schedule: Q04DX003 (ip), vehicle: water) was 98 % of control; the T/C (dose: 5.0 mg/kg/injection, schedule: Q04DX003 (ip), vehicle: water) was 98 % of control; the T/C (dose: 10.0 mg/kg/injection, schedule: Q04DX003 (ip), vehicle: water) is 110 % of control.

On to `CC(=O)CCN1Cc2cc3c(cc2C(O)C1)OCO3` (configuration not stated), for which the T/C is, setting by setting: (dose: 75.0 mg/kg/injection, schedule: Q01DX001 (ip), vehicle: saline) 104 % of control; (dose: 150.0 mg/kg/injection, schedule: Q01DX001 (ip), vehicle: saline) 97 % of control; (dose: 300.0 mg/kg/injection, schedule: Q01DX001 (ip), vehicle: saline) 95 % of control.
